Here are results for 44 compounds from patent US7868006B2, “Heterocyclic substituted piperazines with CXCR3 antagonist activity” (Schering Corporation, priority 2005, dated 2011).

Molecules are shown by their SMILES.

For the assay, the target named is T1, human CXCR3 (N-delta 4) (Homo sapiens, UniProt P49682).
T1 construct: CD8 leader (N); Flag tag (N); expressed in transfected cells; host or cells: mouse pro-B Ba/F3 cells, stably transfected with pME18Sneo-hCXCR3 (N-delta 4); membrane preparation
T1 sequence (P49682 5-368 limits assumed): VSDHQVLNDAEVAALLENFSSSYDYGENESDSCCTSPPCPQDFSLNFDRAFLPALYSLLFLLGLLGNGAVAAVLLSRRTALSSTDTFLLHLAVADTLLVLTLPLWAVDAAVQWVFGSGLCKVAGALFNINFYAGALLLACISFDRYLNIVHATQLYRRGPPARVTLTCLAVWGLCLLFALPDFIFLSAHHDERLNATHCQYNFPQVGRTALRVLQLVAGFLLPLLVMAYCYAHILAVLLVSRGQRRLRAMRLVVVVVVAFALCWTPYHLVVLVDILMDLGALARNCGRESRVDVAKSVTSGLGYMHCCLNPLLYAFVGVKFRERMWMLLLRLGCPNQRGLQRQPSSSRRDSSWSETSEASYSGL
The assay is described as follows: Human CXCR3 (N-delta 4) Scintillation Proximity Assay (SPA), [125I] IP-10 binding. Conditions: IC50 rating; Ba/F3-hCXCR3 (N-delta 4) membranes, 25 pM [125I] IP-10; read-out: IC50. The source says:
The inventive compounds can readily be evaluated to determine activity at The CXCR3 receptors by known methods, such as, for example, Development of Human CXCR3 (N-delta 4) Binding Assay.
Cloning and Expression of Human CXCR3 (N-delta 4):
The DNA encoding human CXCR3 was cloned by PCR using human genomic DNA (Promega, Madison, Wis.) as a template. The PCR primers were designed based on the published sequence of human orphan receptor GPR9 (1) with incorporated restriction sites, a Kozak consensus sequence, CD8 leader and Flag tag. The PCR product was subcloned into the mammalian expression vector pME18Sneo, a derivative of the SR-alpha expression vector (designated as pME18Sneo-hCXCR3 (N-delta 4).
IL-3-dependent mouse pro-B cells Ba/F3 were transfected by electroporation in 0.4 ml Dulbecco's PBS containing 4×10^6 cells with 20 μg of pME18Sneo-hCXCR3 (N-delta 4) plasmid DNA. Cells were pulsed at 400 Volts, 100 OHMs, 960 μFd. The transfected cells were under selection with 1 mg/ml G418 (Life Technologies, Gaithersburg, Md.). G418-resistant Ba/F3 clones were screened for CXCR3 expression by specific binding of [^125I] IP-10 (NEN Life Science Products, Boston, Mass.).
Preparation of Ba/F3-hCXCR3 (N-delta 4) Membranes:
Ba/F3 cells expressing human CXCR3 (N-delta 4) were pelleted and resuspended in the lysis buffer containing 10 mM HEPES, pH 7.5 and Complete® protease inhibitors (1 tablet per 100 ml) (Boehringer Mannheim, Indianapolis, Ind.) at a cell density of 20×10^6 cells per ml. After 5 minutes incubation on ice, cells were transferred to 4639 cell disruption bomb (Parr Instrument, Moline, Ill.) and applied with 1,500 psi of nitrogen for 30 minutes on ice. Large cellular debris was removed by centrifugation at 1,000×g. Cell membrane in the supernatant was sedimented at 100,000×g. The membrane was resuspended in the lysis buffer supplemented with 10% sucrose and stored at −80° C. Total protein concentration of the membrane was determined by BCA method from Pierce (Rockford, Ill.).
Human CXCR3 (N-delta 4) Scintillation Proximity Assay (SPA):
For each assay point, 2 μg of membrane was preincubated for 1 hr with 300 μg wheat germ agglutinin (WGA) coated SPA beads (Amersham, Arlington Heights, Ill.) in the binding buffer (50 mM HEPES, 1 mM CaCl2, 5 mM MgCl2, 125 mM NaCl, 0.002% NaN3, 1.0% BSA) at room temperature. The beads were spun down, washed once, resuspended in the binding buffer and transferred to a 96-well Isoplate (Wallac, Gaithersburg, Md.). 25 pM of [^125I] IP-10 with tested compounds in a series of titration were added to start the reaction. After 3 hr reaction at room temperature, the amount of [^125I] IP-10 bound to the SPA beads was determined with a Wallac 1450 Microbeta counter.
The Ki values for the various example compounds of the present invention are given in the afore-mentioned Table 1. From these values, it would be apparent to the skilled artisan that the compounds of the invention have excellent utility CXCR3 antagonists.
As for `CCNc1nnc(-c2nc(Cl)c(N3CCN(C4CCN(C(=O)c5ccc(Cl)cc5)CC4)[C@@H](CC)C3)nc2N)o1` [Compound 20], the IC50 was below 25 nM.

Turning to `CC[C@H]1CN(c2nc(N)c(-c3nnco3)nc2Cl)CCN1C1CCN(Cc2ccc(Cl)cc2)CC1` [Compound 50], the half-maximal inhibitory concentration (IC50) was below 25 nM.

On to `CCNc1nnc(-c2cnc(N3CCN(C4CCN(C(=O)c5ccc(Cl)nc5N)CC4)[C@@H](CC)C3)c(Cl)n2)s1` [Compound 18], for which the half-maximal inhibitory concentration (IC50) was below 25 nM.

Turning to `CC[C@H]1CN(c2nc(N)c(-c3nnc(N)o3)nc2Cl)CCN1C1CCN(C(=O)c2ccc(Cl)cc2)CC1` [Compound 36], the IC50 was below 25 nM.

With `CC[C@H]1CN(c2ncc(C3=NNCN3)nc2C)[C@H](C)CN1C1CCN(Cc2ccc(F)c(F)c2)CC1` [Compound 114], the IC50 was below 25 nM.

Consider `CC[C@H]1CN(c2ncc(-c3nc[nH]n3)nc2C)[C@H](C)CN1C1CCN(Cc2ccc(F)cc2)CC1` [Compound 106], for which the 50% inhibitory concentration (IC50) was below 25 nM.

Turning to `CC[C@H]1CN(c2ncc(-c3nnc(N)o3)nc2C)[C@H](C)CN1C1CCN(Cc2ccc(OC(F)(F)F)cc2)CC1` [Compound 167], the IC50 is below 25 nM.

Turning to `CC[C@H]1CN(c2nc(N)c(-c3nnc(CO)o3)nc2Cl)CCN1C1CCN(Cc2ccc(Cl)cc2/C(N)=N\O)CC1` [Compound 2], the IC50 is below 25 nM.

For the compound `CC[C@H]1CN(c2ncc(-c3nc[nH]n3)nc2C)[C@H](C)CN1C1CCN(C(=O)c2ccc(F)c(F)c2)CC1` [Compound 122], the half-inhibitory concentration (IC50) fell in the range of 25 to 100 nM.

`CC[C@H]1CN(c2ncc(-c3nnc(C)o3)nc2C)CCN1C1CCN(C(=O)c2ccc(Cl)nc2N)CC1` [Compound 35]: the IC50 was below 25 nM.

Consider `CC[C@H]1CN(c2nc(N)c(-c3nnc(N(C)C)o3)nc2Cl)CCN1C1CCN(Cc2ccc(Cl)cc2)CC1` [Compound 29], for which the IC50 is below 25 nM.

`CC[C@H]1CN(c2ncc(-c3nc[nH]n3)nc2C)CCN1C1CCN(C(=O)c2ccc(Cl)cc2)CC1` [Compound 49]: the half-inhibitory concentration (IC50) is below 25 nM.

With `CC[C@H]1CN(c2nc(N)c(-c3nnc(NC(C)C)o3)nc2Cl)CCN1C1CCN(C(=O)c2ccc(Cl)nc2N)CC1` [Compound 11], the IC50 is below 25 nM.

With `CC[C@H]1CN(c2ncc(-c3nnc(C)o3)nc2Cl)CCN1C1CCN(C(=O)c2cc(F)c(Cl)nc2Cl)CC1` [Compound 33], the IC50 was below 25 nM.

`CC[C@H]1CN(c2ncc(-c3nc[nH]n3)nc2C)[C@H](C)CN1C1CCN(Cc2ccc(Cl)cc2)CC1` [Compound 112]: the IC50 was below 25 nM.

As to `CC[C@H]1CN(c2ncc(-c3nc[nH]n3)nc2C)CCN1C1CCN(C(=O)c2cc(F)c(F)cc2Cl)CC1` [Compound 138], the IC50 lay in the range of 25 to 100 nM.

As for `CC[C@H]1CN(c2nc(O)c(-c3nnc(C)o3)nc2Cl)CCN1C1CCN(C(=O)c2ccc(Cl)cc2)CC1` [Compound 89], the IC50 is above 100 nM.

On to `CC[C@H]1CN(c2ncc(-c3nnc(NC)o3)nc2C)[C@H](C)CN1C1CCN(C(=O)c2ccc(Cl)nc2N)CC1` [Compound 161], for which the concentration for half-maximal inhibition (IC50) was below 25 nM.

Take `CCNc1nnc(-c2cnc(N3CCN(C4CCN(Cc5ccc(C)cc5)CC4)[C@@H](CC)C3)c(C)n2)o1` [Compound 115]: the half-inhibitory concentration (IC50) was below 25 nM.

Consider `CC[C@H]1CN(c2nc(N)c(-c3nnc(C)o3)nc2Cl)CCN1C1CCN(Cc2ccc(Cl)c(OCCS(C)(=O)=O)c2)CC1` [Compound 7], for which the IC50 is below 25 nM.

`CC[C@H]1CN(c2nc(N)c(-c3nnc(C)o3)nc2Cl)CCN1C1CCN([C@@H](CO)c2ccc(Cl)cc2)CC1` [Compound 5]: the 50% inhibitory concentration (IC50) was below 25 nM.

Regarding `CCNc1nnc(-c2cnc(N3CCN(C4CCN(C(=O)c5ccc(Cl)cc5F)CC4)[C@@H](CC)C3)c(C)n2)o1` [Compound 165], the IC50 was below 25 nM.

Consider `CC[C@H]1CN(c2nc(N)c(-c3nnc(C)o3)nc2Cl)CCN1C1CCN([C@H](C(=O)OC)c2ccc(Cl)cc2)CC1` [Compound 83], for which the IC50 is above 100 nM.

Take `CC[C@H]1CN(c2ncc(-c3nnc(C)o3)nc2C)CCN1C1CCN(C(=O)c2ccc(C#N)cc2)CC1` [Compound 64]: the IC50 is below 25 nM.

With `CC[C@H]1CN(c2ncc(-c3nnc(N)[nH]3)nc2Cl)CCN1C1CCN(C(=O)c2ccc(Cl)cc2)CC1` [Compound 66], the IC50 is below 25 nM.

Take `CCNc1nnc(-c2cnc(N3C[C@H](CC)N(C4CCN(C(=O)c5ccc(Cl)nc5N)CC4)C[C@H]3C)c(C(F)(F)F)n2)o1` [Compound 98]: the IC50 was below 25 nM.

In the case of `CC[C@H]1CN(c2nc(N)c(C3=NCCN3)nc2Cl)CCN1C1CCN(C(=O)c2ccc(Cl)nc2N)CC1` [Compound 24], the 50% inhibitory concentration (IC50) was below 25 nM.

`CC[C@H]1CN(c2nc(N)c(-c3nnc(NCC(=O)NC4CC4)o3)nc2C)CCN1C1CCN(C(=O)c2ccc(Cl)nc2N)CC1` [Compound 194]: the IC50 is below 25 nM.

Regarding `CC[C@H]1CN(c2nc(N)c(-c3nnc(N)o3)nc2Cl)CCN1C1CCN(C(=O)c2ccc(Cl)nc2N)CC1` [Compound 17], the IC50 was below 25 nM.

Consider `CCNc1nnc(-c2cnc(N3CCN(C4CCN(C(=O)c5ccc(CC)nc5N)CC4)[C@@H](CC)C3)c(C)n2)o1` [Compound 153], for which the half-maximal inhibitory concentration (IC50) fell in the range of 25 to 100 nM.

On to `CC[C@H]1CN(c2nc(N)c(-c3nnc(C)o3)nc2Cl)CCN1C1CCN(Cc2ccc(Cl)cc2C(N)=O)CC1` [Compound 8], for which the half-maximal inhibitory concentration (IC50) is below 25 nM.

In the case of `CC[C@H]1CN(c2ncc(-c3ncc[nH]3)nc2C)CCN1C1CCN(C(=O)c2ccc(Cl)cc2)CC1` [Compound 111], the half-inhibitory concentration (IC50) is below 25 nM.

For `CC[C@H]1CN(c2nc(N)c(-c3nnc(NCC(=O)NC)o3)nc2C)CCN1C1CCN(C(=O)c2ccc(Cl)nc2N)CC1` [Compound 193], the concentration for half-maximal inhibition (IC50) was below 25 nM.

As for `CCNc1nnc(-c2nc(Cl)c(N3C[C@H](CC)N(C4CCN(C(=O)c5ccc(Cl)nc5N)CC4)C[C@H]3C)nc2N)o1` [Compound 93], the IC50 was below 25 nM.

As for `CC[C@H]1CN(c2nc(N)c(-c3nnc(CO)o3)nc2Cl)CCN1C1CCN([C@H](C(=O)OC)c2ccc(Cl)cc2)CC1` [Compound 85], the IC50 was above 100 nM.

On to `CC[C@H]1CN(c2ncc(-c3nc[nH]n3)nc2C)CCN1C1CCN(C(=O)c2ccc(F)c(F)c2)CC1` [Compound 113], for which the IC50 was below 25 nM.

Turning to `CC[C@H]1CN(c2nc(N)c(-c3nnc(C)o3)nc2Cl)CCN1C1CCN(C(=O)c2ccc(Cl)nc2N)CC1` [Compound 23], the half-inhibitory concentration (IC50) is below 25 nM.

`CC[C@H]1CN(c2ncc(-c3nc[nH]n3)nc2C)[C@H](C)CN1C1CCN(C(CO)c2ccc(Cl)cc2)CC1` (some centres unmarked) [Compound 133]: the IC50 was below 25 nM.

On to `CC[C@H]1CN(c2nc(N)c(-c3nnc(N(C)C)o3)nc2Cl)CCN1C1CCN(C(=O)c2ccc(Cl)nc2N)CC1` [Compound 71], for which the concentration for half-maximal inhibition (IC50) is below 25 nM.

Take `CCNc1nnc(-c2cnc(N3CCN(C4CCN(C(=O)c5ccc(Cl)nc5N)CC4)[C@@H](CC)C3)c(C)n2)o1` [Compound 16]: the IC50 is below 25 nM.

Regarding `CC[C@H]1CN(c2ncc(-c3nc[nH]n3)nc2C)CCN1C1CCN(C(=O)c2ccc(C(F)(F)F)nc2N)CC1` [Compound 147], the IC50 is 25 to 100 nM.

Regarding `CC[C@H]1CN(c2ncc(-c3nnc(NC(C)C)o3)nc2C)CCN1C1CCN(C(=O)c2ccc(F)c(F)c2)CC1` [Compound 159], the half-maximal inhibitory concentration (IC50) was below 25 nM.

For the compound `CCNc1nnc(-c2cnc(N3CCN(C4CCN(C(=O)c5ccc(C(F)(F)F)cc5N)CC4)[C@@H](CC)C3)c(C)n2)o1` [Compound 183], the IC50 is below 25 nM.

On to `CCNc1nnc(-c2cnc(N3CCN(C4CCN(C(=O)c5ccc(Cl)nc5N)CC4)[C@@H](CC)C3)c(CC)n2)o1` [Compound 173], for which the 50% inhibitory concentration (IC50) was below 25 nM.
